Results reported in US9447014B2, “Tromethamine salt of bimatoprost acid in crystalline form, methods for preparation, and methods for use thereof” (ALLERGAN, INC., priority 2012, dated 2016).
Structures can show the parent of a compound that is named as a salt. Where two headings read alike, the source gives them in different places.

Key:
Format in all cases: physicochemical
[1] = physical stability on storage
[2] = gravimetric vapor sorption (GVS) analysis
Description: At relative humidity above 80% RH, tromethamine salt of bimatoprost acid behaves hygroscopic with a a significant moisture uptake observed. The significant uptake of moisture may be a result of the large specific surface area of the material. On desorption, the adsorbed water was rapidly lost with no equilibrium established. At the end of the gravimetric vapor sorption (GVS) cycle, at 40% RH, the overall sample mass increased by 5 wt %.

[3] = dissolution rate compared with the free acid
[4] = solubility of the tromethamine salt

- physical stability ([1]; 25° C./60% RH in open container closure): > 3 months
- physical stability ([1]; 40° C./75% RH in closed container closure): > 3 months
- GVS analysis: deliquescence ([2]; 90% RH): no deliquescence
- GVS analysis: hydrate formation ([2]; 90% RH): no hydrate
- overall sample mass increase at the end of the GVS cycle ([2]; end of GVS cycle, at 40% RH): 5 wt %
- XRPD re-analysis post GVS analysis (change in crystalline form) ([2]; post GVS analysis): no change in the crystalline Form 1
- hygroscopic behaviour (moisture uptake) ([2]; relative humidity above 80% RH): hygroscopic
- solubility ([4]; aqueous buffer, at pH 6.5, read-out: solubility): > 250 mg/mL
- solubility ([4]; in formulation vehicles, no surfactant needed): ~25 w/v %
SMILES: O=C(O)CCC/C=C/CC1C(O)CC(O)C1/C=C/C(O)CCc1ccccc1 (stereo not shown) [tromethamine salt of bimatoprost acid, tromethamine salt of 7-[3,5-Dihydroxy-2-(3-hydroxy-5-phenyl-pent-1-enyl)-cyclopentyl]-hept-5-enoic acid]
- dissolution rate [3]: faster dissolution rate than the free acid
